In US10183014B2, “Ocular formulations for drug-delivery and protection of the anterior segment of the eye” (PanOptica, Inc., priority 2014, dated 2019):
Read-outs that look alike come from different tables or passages of the source.

How the values were obtained:
[1] = molecular target: MINK1 (Homo sapiens, UniProt Q8N4C8); test: In vitro inhibition of tyrosine kinases; format: biochemical; details: read-out: Mean % Inhibition at 1 μM Compound-I; 1 μM (568.9 ng/mL)
[2] = molecular target: FLT4 (VEGFR-3) (Homo sapiens, UniProt P35916); test: In vitro inhibition of tyrosine kinases; format: biochemical; details: read-out: Mean % Inhibition at 1 μM Compound-I; 1 μM (568.9 ng/mL)
[3] = molecular target: ABL1 E255K (Homo sapiens, UniProt P00519, E255K); test: In vitro inhibition of tyrosine kinases; format: biochemical; details: read-out: Mean % Inhibition at 1 μM Compound-I; 1 μM (568.9 ng/mL)
[4] = 1- to 5-day PK with topical ocular Compound-I formulations (Example 5); format: in vivo, Dutch Belted rabbits; details: for concentration at 0.5 h / concentration at 8 h / concentration at 24 h / concentration at 4 h / concentration at 2 h / concentration at 1 h: Dutch Belted, rabbit, topical
Experimental: On day 1, Groups 1, 2, 4-6, 8, 10, 11, 13, 15, and 17 received one dose (q.d.) for either one (1) or four (4) days.
Peripheral retina and peripheral choroid samples were assayed only for Groups 1-8, 12, 14, and 16 per study protocol.

[5] = Concentrations of Compound-I in ocular fluids and tissues, 0.4% cyclodextrin solutions, 24-day study; format: in vivo, Dutch-Belted rabbits; details: 0.4% cyclodextrin-based solutions, twice daily, day 24, 1 hour after first daily dose; for concentration at 1 h: Dutch-Belted, rabbit, topical, 0.4 % (4 mg/mL)
Experimental: The ocular solution of Compound-I comprising cyclodextrin was prepared and tested in different groups of animals.

[6] = molecular target: PDGFRA T674I (Homo sapiens, UniProt P16234, T674I); test: In vitro inhibition of tyrosine kinases; format: biochemical; details: read-out: Mean % Inhibition at 1 μM Compound-I; 1 μM (568.9 ng/mL)
[7] = test system: retinal and choroidal neovascularization; test: Pathologic retinal and choroidal neovascularization, rodent models, topical ocular delivery; format: in vivo
[8] = molecular target: EPHB-4 (Homo sapiens, UniProt P54760); test: In vitro inhibition of tyrosine kinases; format: biochemical; details: read-out: Mean % Inhibition at 1 μM Compound-I; 1 μM (568.9 ng/mL)
[9] = Ocular toxicology studies (tolerability and ocular tissue concentrations); format: in vivo, Dutch-Belted rabbits; details: for concentration at 29 days: Dutch-Belted, topical, 0.3 %, 0.3% Ophthalmic Gel Drop (with and without benzylalkonium chloride), twice daily
Text: Retinal function was normal in all test article and vehicle treated groups during full-field electroretinograms performed in rabbits.

[10] = test system: human tumor xenographs; test: Growth of human tumor xenographs in athymic mice; format: in vivo; details: systemic administration
[11] = molecular target: FGR (Homo sapiens, UniProt P09769); test: In vitro inhibition of tyrosine kinases; format: biochemical; details: read-out: Mean % Inhibition at 1 μM Compound-I; 1 μM (568.9 ng/mL)
[12] = Groups 1, 5: one dose day 1, 0.5 hr post-dose
[13] = Groups 1, 5: one dose day 1, 24 hr post-dose

ABL1 E255K, sequence (P00519 whole entry E255K): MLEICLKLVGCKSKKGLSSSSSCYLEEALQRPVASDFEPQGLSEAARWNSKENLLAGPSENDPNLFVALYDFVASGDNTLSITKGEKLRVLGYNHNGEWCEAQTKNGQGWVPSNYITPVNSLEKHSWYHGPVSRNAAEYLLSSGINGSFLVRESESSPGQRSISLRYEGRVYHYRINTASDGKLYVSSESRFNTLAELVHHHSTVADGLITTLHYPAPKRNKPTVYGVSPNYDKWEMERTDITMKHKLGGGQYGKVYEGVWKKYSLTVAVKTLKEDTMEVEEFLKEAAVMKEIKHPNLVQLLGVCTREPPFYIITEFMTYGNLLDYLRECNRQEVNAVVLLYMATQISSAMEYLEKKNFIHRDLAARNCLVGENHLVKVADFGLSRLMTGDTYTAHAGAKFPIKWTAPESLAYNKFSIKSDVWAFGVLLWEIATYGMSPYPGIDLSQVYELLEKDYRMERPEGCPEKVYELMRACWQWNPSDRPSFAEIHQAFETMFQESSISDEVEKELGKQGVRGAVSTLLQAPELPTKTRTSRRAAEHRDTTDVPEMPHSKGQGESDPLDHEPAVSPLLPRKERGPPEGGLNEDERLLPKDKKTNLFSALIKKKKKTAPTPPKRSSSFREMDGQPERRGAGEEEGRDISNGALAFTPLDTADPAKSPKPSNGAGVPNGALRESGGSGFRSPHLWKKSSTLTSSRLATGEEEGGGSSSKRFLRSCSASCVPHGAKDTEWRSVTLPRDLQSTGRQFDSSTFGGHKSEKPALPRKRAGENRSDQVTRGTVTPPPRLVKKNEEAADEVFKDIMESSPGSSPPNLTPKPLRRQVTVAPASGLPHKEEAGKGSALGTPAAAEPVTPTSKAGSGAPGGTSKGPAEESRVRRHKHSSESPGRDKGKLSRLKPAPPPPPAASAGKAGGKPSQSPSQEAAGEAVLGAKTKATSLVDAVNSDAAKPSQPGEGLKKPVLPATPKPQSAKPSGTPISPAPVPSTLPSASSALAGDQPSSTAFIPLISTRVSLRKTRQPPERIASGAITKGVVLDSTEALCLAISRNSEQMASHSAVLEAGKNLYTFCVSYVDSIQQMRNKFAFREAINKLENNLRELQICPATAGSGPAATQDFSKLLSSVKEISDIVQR
FGR, sequence (P09769 whole entry, species assumed): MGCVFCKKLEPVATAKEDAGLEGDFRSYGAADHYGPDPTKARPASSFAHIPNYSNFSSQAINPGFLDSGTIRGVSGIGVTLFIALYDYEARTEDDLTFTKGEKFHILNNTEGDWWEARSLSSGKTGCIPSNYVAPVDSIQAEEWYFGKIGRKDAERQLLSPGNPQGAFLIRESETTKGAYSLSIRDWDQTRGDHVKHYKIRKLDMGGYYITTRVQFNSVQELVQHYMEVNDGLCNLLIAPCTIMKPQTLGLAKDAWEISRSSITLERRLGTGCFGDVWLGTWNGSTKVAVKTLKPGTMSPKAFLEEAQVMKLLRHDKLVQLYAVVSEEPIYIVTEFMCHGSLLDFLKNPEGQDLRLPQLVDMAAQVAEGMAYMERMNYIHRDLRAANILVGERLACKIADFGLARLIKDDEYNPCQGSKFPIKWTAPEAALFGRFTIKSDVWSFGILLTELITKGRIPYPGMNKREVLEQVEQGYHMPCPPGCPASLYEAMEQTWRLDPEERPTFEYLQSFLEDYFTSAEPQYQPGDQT
FLT4 (VEGFR-3), sequence (P35916 25-1363, species assumed): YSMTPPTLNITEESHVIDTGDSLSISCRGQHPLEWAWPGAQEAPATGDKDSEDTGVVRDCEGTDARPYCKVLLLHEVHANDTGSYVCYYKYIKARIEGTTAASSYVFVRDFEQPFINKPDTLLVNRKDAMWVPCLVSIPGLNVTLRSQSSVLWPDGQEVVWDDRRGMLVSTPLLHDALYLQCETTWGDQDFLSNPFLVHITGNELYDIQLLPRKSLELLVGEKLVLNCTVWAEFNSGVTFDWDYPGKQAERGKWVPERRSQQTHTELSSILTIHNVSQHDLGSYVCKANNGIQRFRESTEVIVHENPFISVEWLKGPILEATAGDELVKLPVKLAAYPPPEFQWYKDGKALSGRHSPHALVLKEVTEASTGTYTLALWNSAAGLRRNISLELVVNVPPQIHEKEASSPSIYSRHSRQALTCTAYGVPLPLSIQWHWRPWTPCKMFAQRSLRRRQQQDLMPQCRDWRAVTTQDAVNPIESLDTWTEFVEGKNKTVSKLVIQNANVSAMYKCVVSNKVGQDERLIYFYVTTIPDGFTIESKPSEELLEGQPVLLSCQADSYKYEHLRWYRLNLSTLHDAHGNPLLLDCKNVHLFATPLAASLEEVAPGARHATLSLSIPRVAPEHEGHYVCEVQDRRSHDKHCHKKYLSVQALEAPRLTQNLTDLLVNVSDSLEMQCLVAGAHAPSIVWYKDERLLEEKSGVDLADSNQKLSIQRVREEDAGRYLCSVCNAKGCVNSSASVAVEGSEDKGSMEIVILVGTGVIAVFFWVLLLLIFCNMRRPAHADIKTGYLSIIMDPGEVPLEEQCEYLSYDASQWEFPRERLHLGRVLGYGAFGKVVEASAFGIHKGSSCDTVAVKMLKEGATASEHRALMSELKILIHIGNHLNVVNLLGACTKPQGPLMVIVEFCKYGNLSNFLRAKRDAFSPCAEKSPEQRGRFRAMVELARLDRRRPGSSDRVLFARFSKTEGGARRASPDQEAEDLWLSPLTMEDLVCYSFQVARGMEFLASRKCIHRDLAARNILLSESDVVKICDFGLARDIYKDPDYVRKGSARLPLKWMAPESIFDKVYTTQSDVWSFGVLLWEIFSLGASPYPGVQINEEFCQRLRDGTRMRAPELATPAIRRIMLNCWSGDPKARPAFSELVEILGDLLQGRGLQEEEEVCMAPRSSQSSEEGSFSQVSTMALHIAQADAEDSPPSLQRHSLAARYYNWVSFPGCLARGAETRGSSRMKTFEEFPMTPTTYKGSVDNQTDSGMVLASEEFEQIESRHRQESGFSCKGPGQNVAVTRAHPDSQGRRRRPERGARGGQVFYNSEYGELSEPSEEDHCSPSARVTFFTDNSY
EPHB-4, sequence (P54760 16-987, species assumed): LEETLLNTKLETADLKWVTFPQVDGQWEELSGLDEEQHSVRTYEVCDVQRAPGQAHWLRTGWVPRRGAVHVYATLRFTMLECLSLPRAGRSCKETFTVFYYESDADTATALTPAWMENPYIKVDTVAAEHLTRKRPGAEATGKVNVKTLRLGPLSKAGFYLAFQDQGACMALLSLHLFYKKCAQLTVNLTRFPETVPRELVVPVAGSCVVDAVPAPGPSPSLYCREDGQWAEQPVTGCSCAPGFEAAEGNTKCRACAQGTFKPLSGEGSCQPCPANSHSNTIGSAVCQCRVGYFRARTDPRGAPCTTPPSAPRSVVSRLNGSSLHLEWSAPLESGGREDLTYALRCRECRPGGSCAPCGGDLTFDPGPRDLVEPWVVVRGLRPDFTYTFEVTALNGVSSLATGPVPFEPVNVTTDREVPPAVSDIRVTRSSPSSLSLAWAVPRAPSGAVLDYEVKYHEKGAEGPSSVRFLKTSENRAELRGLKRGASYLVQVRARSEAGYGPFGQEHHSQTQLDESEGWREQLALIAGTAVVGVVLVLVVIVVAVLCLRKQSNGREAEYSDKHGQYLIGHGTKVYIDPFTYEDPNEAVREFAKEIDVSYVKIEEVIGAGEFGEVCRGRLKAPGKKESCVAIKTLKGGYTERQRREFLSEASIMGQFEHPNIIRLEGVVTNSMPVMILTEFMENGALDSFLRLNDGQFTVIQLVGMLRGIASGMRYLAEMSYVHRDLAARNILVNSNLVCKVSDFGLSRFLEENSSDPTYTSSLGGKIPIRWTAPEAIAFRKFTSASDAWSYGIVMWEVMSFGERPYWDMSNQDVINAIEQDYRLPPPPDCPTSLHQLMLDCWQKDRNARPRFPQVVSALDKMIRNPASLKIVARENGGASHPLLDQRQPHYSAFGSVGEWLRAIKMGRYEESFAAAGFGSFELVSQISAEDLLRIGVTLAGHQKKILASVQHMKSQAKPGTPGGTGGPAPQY
PDGFRA T674I, sequence (P16234 24-1089 T674I): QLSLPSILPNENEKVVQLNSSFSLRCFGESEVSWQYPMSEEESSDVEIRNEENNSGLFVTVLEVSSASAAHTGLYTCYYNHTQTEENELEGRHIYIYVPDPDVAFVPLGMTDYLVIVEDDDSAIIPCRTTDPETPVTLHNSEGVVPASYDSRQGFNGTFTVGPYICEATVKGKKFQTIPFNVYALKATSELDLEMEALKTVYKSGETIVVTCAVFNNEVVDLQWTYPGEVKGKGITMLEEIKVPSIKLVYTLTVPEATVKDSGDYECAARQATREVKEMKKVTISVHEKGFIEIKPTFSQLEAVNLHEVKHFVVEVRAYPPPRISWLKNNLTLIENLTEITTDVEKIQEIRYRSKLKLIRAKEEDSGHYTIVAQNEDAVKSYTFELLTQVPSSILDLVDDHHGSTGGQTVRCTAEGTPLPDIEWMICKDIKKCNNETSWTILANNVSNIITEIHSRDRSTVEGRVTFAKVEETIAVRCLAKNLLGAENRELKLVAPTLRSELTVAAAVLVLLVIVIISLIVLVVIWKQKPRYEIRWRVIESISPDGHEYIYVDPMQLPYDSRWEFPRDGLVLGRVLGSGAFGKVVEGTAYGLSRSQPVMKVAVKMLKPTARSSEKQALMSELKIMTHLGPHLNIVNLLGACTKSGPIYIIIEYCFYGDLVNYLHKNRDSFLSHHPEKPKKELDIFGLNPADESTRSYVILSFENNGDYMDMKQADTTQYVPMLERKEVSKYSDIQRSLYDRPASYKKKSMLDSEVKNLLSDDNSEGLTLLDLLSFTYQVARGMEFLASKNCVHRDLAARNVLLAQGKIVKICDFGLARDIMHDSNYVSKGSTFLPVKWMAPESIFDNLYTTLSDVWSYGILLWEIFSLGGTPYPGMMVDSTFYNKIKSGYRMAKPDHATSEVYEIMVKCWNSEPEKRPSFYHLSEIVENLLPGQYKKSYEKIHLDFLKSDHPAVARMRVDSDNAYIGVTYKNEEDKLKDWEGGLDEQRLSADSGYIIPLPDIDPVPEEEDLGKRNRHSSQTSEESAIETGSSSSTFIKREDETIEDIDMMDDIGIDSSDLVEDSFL

## Cl.NC(=O)c1c(OCc2c(F)cc(Br)cc2F)nsc1NC(=O)NCCCCN1CCCC1 [Compound-I, 3-[(4-bromo-2,6-difluorophenyl)methoxy]-5-[[[[4-(1-pyrrolidinyl)butyl]amino]carbonyl]amino]-4-isothiazolecarboxamide hydrochloride]
[1]
  inhibition at 1 µM: 100%
[2]
  inhibition at 1 µM: 95%
[3]
  inhibition at 1 µM: 90%
[4]; aqueous humor, 30 μL (bilateral), Groups 1, 5: one dose day 1, 0.5 hr post-dose, read-out: Average Concentration Aqueous Humor
  concentration at 0.5 h: 1.62 nM
[4]; aqueous humor, 30 μL (bilateral), Groups 1, 5: one dose day 1, 8 hr post-dose, read-out: Average Concentration Aqueous Humor
  concentration at 8 h: 6.67 nM
[4]; aqueous humor, 30 μL (bilateral), Groups 1, 5: one dose day 1, 24 hr post-dose, read-out: Average Concentration Aqueous Humor
  concentration at 24 h: 3.03 nM
[4]; aqueous humor, 30 μL bilateral (each eye), Group 5: one dose day 1, 4 hr post-dose, read-out: Average Concentration Aqueous Humor
  concentration at 4 h: 9.11 nM
[4]; aqueous humor, 30 μL bilateral (each eye), Groups 1, 5: one dose day 1, 2 hr post-dose, read-out: Average Concentration Aqueous Humor
  concentration at 2 h: 8.62 nM
[4]; aqueous humor, 30 μL bilateral, Groups 1, 5: one dose day 1, 1 hr post-dose, read-out: Average Concentration Aqueous Humor
  concentration at 1 h: 1.08 nM
[4]; central choroid, 30 μL (bilateral), q.d. groups (2,4,6,8,10,11,13,15,17), 4 days, 1 hr after day 5 morning dose, read-out: Average Concentration Central Choroid
  concentration at 1 h: 196 nM
[4]; central choroid, 30 μL (bilateral, each eye), q.d. groups (2,6,8,11,13), 4 days, 24 hr after day 5 morning dose, read-out: Average Concentration Central Choroid
  concentration at 24 h: 319 nM
[4]; central choroid, 30 μL per eye (bilateral), b.i.d. groups (3,7), 4 days, 24 hr after day 5 morning dose, read-out: Average Concentration Central Choroid
  concentration at 24 h: 283 nM
[4]; central choroid, 30 μL, q.d. groups (2,6,8,11,13), 4 days, 24 hr after day 5 morning dose, read-out: Average Concentration Central Choroid
  concentration at 24 h: 218 nM
[4]; central retina, 30 μL (bilateral), Groups 1, 5: one dose day 1, 8 hr post-dose, read-out: Average Concentration Central Retina
  concentration at 8 h: 30.4 nM
[4]; central retina, 30 μL (bilateral), q.d. groups (2,4,6,8,10,11,13,15,17), 4 days, 1 hr after day 5 morning dose, read-out: Average Concentration Central Retina
  concentration at 1 h: 36.3 nM
[4]; central retina, 30 μL (bilateral), q.d. groups (2,6,8,11,13), 4 days, 24 hr after day 5 morning dose, read-out: Average Concentration Central Retina
  concentration at 24 h: 24.1 nM
[4]; central retina, 30 μL bilateral (each eye), Group 5: one dose day 1, 4 hr post-dose, read-out: Average Concentration Central Retina
  concentration at 4 h: 29.9 nM
[4]; central retina, 30 μL bilateral (each eye), Groups 1, 5: one dose day 1, 2 hr post-dose, read-out: Average Concentration Central Retina
  concentration at 2 h: 35.4 nM
[4]; central retina, 30 μL per eye (bilateral), b.i.d. groups (3,7), 4 days, 24 hr after day 5 morning dose, read-out: Average Concentration Central Retina
  concentration at 24 h: 29.2 nM
[4]; central retina, 30 μL per eye (bilateral), q.d. groups (2,6), 4 days, 8 hr after day 5 morning dose, read-out: Average Concentration Central Retina
  concentration at 8 h: 38 nM
[4]; central retina, 30 μL per eye (bilateral), q.d. groups (2,6,8,11,13), 4 days, 24 hr after day 5 morning dose, read-out: Average Concentration Central Retina
  concentration at 24 h: 24.6 nM
[4]; central retina, 30 μL, b.i.d. groups (3,7,9,12,14,16), 4 days, 1 hr after day 5 morning dose, read-out: Average Concentration Central Retina
  concentration at 1 h: 40.7 nM
[4]; cornea, 30 μL (bilateral), Group 5: one dose day 1, 4 hr post-dose, read-out: Average Concentration Cornea
  concentration at 4 h: 14100 nM
[4]; cornea, 30 μL bilateral (each eye), Groups 1, 5: one dose day 1, 2 hr post-dose, read-out: Average Concentration Cornea
  concentration at 2 h: 28100 nM
[4]; cornea, 30 μL bilateral, Groups 1, 5: one dose day 1, 1 hr post-dose, read-out: Average Concentration Cornea
  concentration at 1 h: 16900 nM
[4]; peripheral choroid, 30 μL (bilateral), Group 5: one dose day 1, 4 hr post-dose, read-out: Average Concentration Peripheral Choroid
  concentration at 4 h: 77.5 nM
[4]; peripheral choroid, 30 μL (bilateral), Groups 1, 5: one dose day 1, 8 hr post-dose, read-out: Average Concentration Peripheral Choroid
  concentration at 8 h: 87.4 nM
[4]; peripheral choroid, 30 μL (bilateral), Groups 1, 5: one dose day 1, 24 hr post-dose, read-out: Average Concentration Peripheral Choroid
  concentration at 24 h: 88 nM
[4]; peripheral choroid, 30 μL bilateral, Groups 1, 5: one dose day 1, 1 hr post-dose, read-out: Average Concentration Peripheral Choroid
  concentration at 1 h: 47.3 nM
[4]; peripheral choroid, 30 μL per eye (bilateral), b.i.d. groups (3,7), 4 days, 24 hr after day 5 morning dose, read-out: Average Concentration Peripheral Choroid
  concentration at 24 h: 892 nM
[4]; peripheral choroid, 30 μL per eye (bilateral), b.i.d. groups (3,7,12,14,16), 4 days, 1 hr after day 5 morning dose, read-out: Average Concentration Peripheral Choroid
  concentration at 1 h: 765 nM
[4]; peripheral retina, 30 μL (bilateral), Groups 1, 5: one dose day 1, 8 hr post-dose, read-out: Average Concentration Peripheral Retina
  concentration at 8 h: 33.3 nM
[4]; peripheral retina, 30 μL (bilateral), Groups 1, 5: one dose day 1, 24 hr post-dose, read-out: Average Concentration Peripheral Retina
  concentration at 24 h: 15.1 nM
[4]; peripheral retina, 30 μL (bilateral), q.d. groups (2,4,6,8), 4 days, 1 hr after day 5 morning dose, read-out: Average Concentration Peripheral Retina
  concentration at 1 h: 96.1 nM
[4]; peripheral retina, 30 μL bilateral (each eye), Group 5: one dose day 1, 4 hr post-dose, read-out: Average Concentration Peripheral Retina
  concentration at 4 h: 31.2 nM
[4]; peripheral retina, 30 μL bilateral, Groups 1, 5: one dose day 1, 0.5 hr post-dose, read-out: Average Concentration Peripheral Retina
  concentration at 0.5 h: 22.7 nM
[4]; peripheral retina, 30 μL per eye (bilateral), q.d. groups (2,6), 4 days, 8 hr after day 5 morning dose, read-out: Average Concentration Peripheral Retina
  concentration at 8 h: 50.8 nM
[4]; peripheral retina, 30 μL, b.i.d. groups (3,7,12,14,16), 4 days, 1 hr after day 5 morning dose, read-out: Average Concentration Peripheral Retina
  concentration at 1 h: 108 nM
[4]; Group 5: one dose day 1, 4 hr post-dose
  Average Concentration Central Choroid: <LLOQ
[4]; [12]
  Average Concentration Central Choroid: <LLOQ
  Average Concentration Peripheral Choroid: <LLOQ
[4]; Groups 1, 5: one dose day 1, 1 hr post-dose
  Average Concentration Central Choroid: <LLOQ
[4]; Groups 1, 5: one dose day 1, 2 hr post-dose
  Average Concentration Central Choroid: <LLOQ
[4]; Groups 1, 5: one dose day 1, 8 hr post-dose
  Average Concentration Central Choroid: <LLOQ
[4]; [13]
  Average Concentration Central Choroid: <LLOQ
  Average Concentration Central Retina: <LLOQ
[5]
  Corneal concentration, range over solutions: 6.49 to 30 µM
[5]; aqueous humor, read-out: Aqueous humor concentration, range over solutions
  concentration at 1 h: 2 to 7 nM
[5]; central retina, read-out: Central retina concentration, range over solutions
  concentration at 1 h: 53.1 to 124 nM
[6]
  inhibition at 1 µM: 86%
[7]
  Pathologic retinal and choroidal neovascularization: significant inhibition
[8]
  inhibition at 1 µM: 80%
[9]; 0.3% w/v Tris-based suspension twice daily for 30 days
  Microscopic evaluation of eyes: considered normal
[9]; 0.6% cyclodextrin-based solution, 30 days topical ocular dosing
  Findings attributed to test-article or vehicle: no untoward findings
[9]; rabbit, central choroid, read-out: Central Choroid [Compound I]
  concentration at 29 days: 340 to 496 nM
[9]; rabbit, cornea, read-out: Cornea [Compound I]
  concentration at 29 days: 236000 to 260000 nM
[9]; all test article groups
  Retinal function (full-field electroretinograms): normal
[9]; discomfort, inflammation, corneal thinning
  Cornea concentration above which ocular side effects were more consistently observed: exceeded 100 μM
[9]; ophthalmic gel drops, topical ocular dosing
  Corneal tissue exposure: ≥ 100 µM
[9]; rabbit, in vivo
  Corneal concentration, Gel Drop compared to Tris-based suspensions: fifty-fold to hundred-fold higher
  Corneal concentration, Gel Drop compared to cyclodextrin based solution: five-fold to fifteen-fold higher
  Ocular tolerability (clinical ophthalmic examinations): well tolerated
[9]; suspension-based and cyclodextrin formulations
  Reduction of corneal exposure versus Gel Drop: 10-100 ×
[9]; topical ocular dosing 1 to 30 days, hydrochloride
  Reduction in corneal concentrations, cyclodextrin-based solution versus equimolar Gel Drop: ~10 fold
[10]
  Growth of human tumor xenographs: inhibit
[11]
  inhibition at 1 µM: 91%
